Two compounds from US5366880A, “Antibiotic agent” (Merck & Co., Inc., priority 1993, dated 1994) can be followed below.

The subject of one experiment is Candida albicans. Kind of experiment: minimum fungicidal concentration (MFC), microbroth dilution assay, Candida albicans. The class given is cell-based. Particulars: 24 h. Here is the method:
(§1) The antifungal properties may be illustrated with the minimum fungicidal concentration (MFC) determinations against certain Candida organisms in a microbroth dilution assay carried out in Yeast Nitrogen Base (Difco) with 1 percent dextrose (YNBD). In carrying out the assay, Compound I was solubilized in 10 percent dimethyl sulfoxide (DMSO) and diluted to 2560 μg/ml. The compound was then diluted to 256 μg/ml in YNBD. 0.15 ml of the suspension was dispensed to the top row of a 96-well plate (each well containing 0.15 ml of YNDB) resulting in a drug concentration of 128 μg/ml. Two-fold dilutions were then made from the top row to obtain final drug concentrations ranging from 128 to 0.06 μg/ml.
(§2) The yeast cultures, maintained on Sabouraud dextrose agar were transferred to YM broth (Difco) and incubated overnight at 35° C. with shaking (250 rpm). After incubation, each culture was diluted in sterile water to yield a final concentration of 1-5×10^6 colony forming units (CFU)/ml.
96-well microplates were inoculated using a MIC-2000 (Dynatech) which delivers 1.5 μl per well yielding a final inoculum per well of 1.5-7.5×10^3 cells. The microplates were incubated at 35° C. for 24 hours. The minimum inhibitory concentrations (MICs) were recorded as the lowest concentrations of drug showing no visible growth.
After recording the MIC, the plates were shaken to resuspend the cells. Thereafter, 1.5 μl samples from the wells in the 96-well microplate were transferred to a single well tray containing Sabouraud dextrose agar. The inoculated trays were incubated 24 hours at 28° C. and then read. The MFC is defined as the lowest concentration of drug showing no growth or less than 4 colonies per spot. The results (three samples) are seen in the following table: ______________________________________ Minimum Fungicidal Concentration (μg/ml) Fungi Compound Compound Strain No. IA IB ______________________________________ Candida albicans MY 1055 2 1 MY 1028 2 0.5 MY 1750 4 1 Candida tropicalis MY 1012 1 0.12 Candida pseudotropicalis MY 1100 4 2 ______________________________________

A further experiment has as its system Candida tropicalis. Kind of experiment: minimum fungicidal concentration (MFC), microbroth dilution assay, Candida tropicalis. The following applies: 24 h, strain MY 1012, YNBD. It counts as cell-based. Here is the method:
as §1, §2
(§3) 96-well microplates were inoculated using a MIC-2000 (Dynatech) which delivers 1.5 μl per well yielding a final inoculum per well of 1.5-7.5×10^3 cells. […] The minimum inhibitory concentrations (MICs) were recorded as the lowest concentrations of drug showing no visible growth.
(§4) After recording the MIC, the plates were shaken to resuspend the cells. […] The inoculated trays were incubated 24 hours at 28° C. and then read. […]

The test system of the next experiment is Candida pseudotropicalis. Kind of experiment: minimum fungicidal concentration (MFC), microbroth dilution assay, Candida pseudotropicalis. The class given is cell-based. Particulars: Kluyveromyces marxianus, 24 h; strain MY 1100; YNBD. Here is the method: as §1, §2, §3, §4
In a further experiment the test system is Pneumocystis carinii. Kind of experiment: effectiveness against Pneumocystis carinii pneumonia in immunosuppressed rats. It counts as in vivo, Sprague-Dawley rats. The following applies: subcutaneously twice daily for four days; for Reduction of Cysts / Log Mean # Cysts (± SEGM): rat lung; for Log Mean # Cysts (± SEGM): * significant (t-test); for Survivors: rats. Here is the method:
Compound I is useful for inhibiting or alleviating Pneumocystis carinii infections. In a representative study, the effectiveness of Compound I in rats were determined. Sprague-Dawley rats (weighing approximatley 250 g) were immunosuppressed with dexasone in the drinking water ([…]) and maintained on a low protein diet for 5 weeks to induce the development of Pneumocystis pneumonia from a latent infection. Before drug treatment 2 rats were sacrificed to confirm the presence of Pneumocystis carinii pneumonia (PCP); both rats had infections. The remaining rats (weighing approximately 150 g) were distributed into groups of 6 and injected twice daily for four days subcutaneously with compound in 0.25 ml of vehicle (10% DMSO in water or water). The control group of 5 rats received vehicle alone. All animals continued to receive dexasone in the drinking water and low protein diet during the drug treatment period. At the completion of treatment all animals were sacrificed, the lungs were removed and processed, and the extent of disease determined by microscopic analysis of stained slides. […] All groups were compared using the student t-test and results marked (*) are significant.

Converted amounts (≈) assume the structure as drawn. *1 amine or outer side, *2 acyl side, *3 side chain or, on linkers, in order; H or OH if unused. Where a SMILES comes first, the peptide text is derived from it. Bridges are numbered along the chain shown (N, C = ends). [ ]: non-standard residue; d: D form. The star is where a group is joined. ξ: configuration not given here. ξOrn(4,5-diOH) = O=C(C(CC(O)C(O)N[*:3])N[*:1])[*:2]; ξhTyr(βξ-OH,γξ-OH) = NC(C(=O)O)C(O)C(O)c1ccc(O)cc1; X2 = NC(=O)CC(O)C(N[*:1])C(=O)[*:2]; X3 = O=C(C1C(O)C(O)CN1[*:1])[*:2]; X1 = CCC(C)CC(C)CCCCCCCCC(=O)*; Hyp = O=C(O)[CH]1C[CH](O)CN1

With `CCC(C)CC(C)CCCCCCCCC(=O)NC1CC(O)C(O)NC(=O)C2CC(O)CN2C(=O)C(C(O)CC(N)=O)NC(=O)C(C(O)C(O)c2ccc(O)cc2)NC(=O)C2CC(O)CN2C(=O)C(C(C)O)NC1=O` (stereo not drawn) [Compound IA] (X1-[ξOrn(4,5-diOH)]T[Hyp][ξhTyr(βξ-OH,γξ-OH)][X2][Hyp]; lactam 1-C; configuration not given here), the minimal fungicidal concentration (MFC) is 2 µg/mL (≈ 1.88 µM) against Candida albicans (strain MY 1028, YNBD); 2 µg/mL (≈ 1.88 µM) in the experiment with Candida albicans (strain MY 1055, YNBD); 4 µg/mL (≈ 3.76 µM) against Candida albicans (strain MY 1750, YNBD); 1 µg/mL (≈ 0.939 µM) against Candida tropicalis; 4 µg/mL (≈ 3.76 µM) against Candida pseudotropicalis. The “Reduction of Cysts” value was determined as 88.5% in the experiment on Pneumocystis carinii (0.15 mg/kg), 94.6% with Pneumocystis carinii (0.30 mg/kg), 97.4% with Pneumocystis carinii (0.60 mg/kg) and 97.9% in the experiment with Pneumocystis carinii (1.20 mg/kg). In addition, the “Log Mean # Cysts (± SEGM)” value in the experiment on Pneumocystis carinii (0.15 mg/kg) is listed as 6.32 ± .17; in the experiment on Pneumocystis carinii (0.30 mg/kg) it was 5.99 ± .18; in the experiment with Pneumocystis carinii (0.60 mg/kg), 5.68 ± .19; with Pneumocystis carinii (1.20 mg/kg), 5.58 ± .11. Also, the Survivors in the experiment on Pneumocystis carinii (0.15 mg/kg) is given as 6/6; in the experiment on Pneumocystis carinii (0.30 mg/kg), 5/6; in the experiment with Pneumocystis carinii (0.60 mg/kg), 6/6; in the experiment on Pneumocystis carinii (1.20 mg/kg), 5/6.

Turning to `CCC(C)CC(C)CCCCCCCCC(=O)NC1CC(O)C(O)NC(=O)C2C(O)C(O)CN2C(=O)C(C(O)CC(N)=O)NC(=O)C(C(O)C(O)c2ccc(O)cc2)NC(=O)C2CC(O)CN2C(=O)C(C(C)O)NC1=O` (stereo not drawn) [Compound IB] (X1-[ξOrn(4,5-diOH)]T[Hyp][ξhTyr(βξ-OH,γξ-OH)][X2][X3]; lactam 1-C; configuration not given here), the MFC was determined as 0.5 µg/mL (≈ 0.462 µM) in the experiment with Candida albicans (strain MY 1028, YNBD); 1 µg/mL (≈ 0.925 µM) with Candida albicans (strain MY 1055, YNBD); 1 µg/mL (≈ 0.925 µM) in the experiment on Candida albicans (strain MY 1750, YNBD); 0.12 µg/mL (≈ 0.111 µM) in the experiment with Candida tropicalis; 2 µg/mL (≈ 1.85 µM) in the experiment on Candida pseudotropicalis. The “Reduction of Cysts” value in the experiment with Pneumocystis carinii (0.03 mg/kg) came to 95.0%; in the experiment on Pneumocystis carinii (0.07 mg/kg), 96.8%; with Pneumocystis carinii (0.15 mg/kg) it was 98.7%; in the experiment with Pneumocystis carinii (0.30 mg/kg), 99.4%; in the experiment on Pneumocystis carinii (0.60 mg/kg) it was 99.1%. Besides, the “Log Mean # Cysts (± SEGM)” value in the experiment with Pneumocystis carinii (0.03 mg/kg) is 6.16 ± .14; in the experiment on Pneumocystis carinii (0.07 mg/kg), 5.97 ± .18; in the experiment with Pneumocystis carinii (0.15 mg/kg), 5.59 ± .11; with Pneumocystis carinii (0.30 mg/kg) it was 5.22 ± .10; in the experiment on Pneumocystis carinii (0.60 mg/kg), 5.41 ± .17. The Survivors in the experiment with Pneumocystis carinii (0.03 mg/kg), with Pneumocystis carinii (0.07 mg/kg), in the experiment with Pneumocystis carinii (0.15 mg/kg), with Pneumocystis carinii (0.30 mg/kg) and in the experiment with Pneumocystis carinii (0.60 mg/kg) was 6/6 in each case.
